From ChEMBL document CHEMBL1151095, “Anti-human immunodeficiency virus type-1 (HIV-1) and anti-hepatitis B virus (HBV) activities of (2,3-dideoxy-2-fluoro--L-threo-pentofuranosyl)nucleosides” (Bioorg Med Chem Lett, 1995)
pEC50, pIC50: −log10 of the molar value.

Tests used:
[1] = In vitro anti-HIV activity was evaluated in human peripheral blood mononuclear (PBM) cells; format: functional
[2] = species on record: Homo sapiens; assay: Cytotoxicity in 2.2.15 cells; format: functional, cell-based; conditions: HepG2 2.2.15
[3] = Cytotoxicity in human peripheral blood mononuclear (PBM) cells; format: functional, cell-based
[4] = test system: Vero; assay: Cytotoxicity in Vero cells; format: functional, cell-based; conditions: Chlorocebus sabaeus
[5] = test system: CCRF-CEM; assay: Cytotoxicity in CEM cells; format: functional, cell-based; conditions: Homo sapiens
[6] = species on record: Homo sapiens; assay: In vitro anti-HBV activity in 2.2.15 cells; format: functional, cell-based; conditions: HepG2 2.2.15

pEC50 [1]	pEC50 [6]	Structure (SMILES)	pIC50 [2]	pIC50 [3]	pIC50 [4]	pIC50 [5]
4.79	5.40	Nc1ccn([C@@H]2O[C@H](CO)C[C@@H]2F)c(=O)n1	< 3.70	< 4.00	< 4.00	< 4.00
4.00	< 5.00	Nc1ncnc2c1ncn2[C@@H]1O[C@H](CO)C[C@@H]1F [LODENOSINE]	< 3.70	< 4.00	< 4.00	< 4.00

Structure (SMILES)	pEC50 [1]	pEC50 [6]	pIC50 [2]	pIC50 [3]	pIC50 [4]	pIC50 [5]
Cc1cn([C@H]2C[C@H](N=[N+]=[N-])[C@@H](CO)O2)c(=O)[nH]c1=O [ZIDOVUDINE]	8.40			< 4.00		
